Results taken from publication PMC4588179, “Antifungal Activity of 14-Helical β-Peptides against Planktonic Cells and Biofilms of Candida Species” (Pharmaceuticals, 2015).

Tests used:
[1] = RP-HPLC retention time as measure of β-peptide hydrophobicity; assay type: physicochemical; conditions: chromatographic, analytical RP-HPLC, C18 (Waters X-bridge, 4.6 mm × 250 mm), gradient 20%–80% CH3CN in water with 0.1% TFA over 5–35 min, 1 mL/minute, 0.5 to 1 mg/mL, 50 µL injected; mean ± standard deviation of triplicate measurements
From the text: β-peptides were produced by microwave-assisted Fmoc synthesis at 20−40 μmol scales and purified by RP-HPLC using a C18 column. MALDI mass spectrometry was used to validate the mass of each peptide as described previously. Retention times determined by C18 RP-HPLC were used as a measure of the relative hydrophobicity of the β-peptides (Table 1). This approach has been used previously by our group and others to assess the relative hydrophobicity of different peptide structures. Preliminary antifungal activity and mammalian toxicity evaluation were reported previously for β-peptides 1–16 as planktonic MIC against C. albicans and percent hemolysis at the MIC, respectively.
Hydrophobicity of 14-helical β-peptides was characterized by measuring retention times with an analytical RP-HPLC using a C18 column (Waters, X-bridge, column dimensions 4.6 mm × 250 mm, Milford, MA, USA). The β-peptide solutions (0.5 to 1 mg/mL, 50 µL) were injected into the HPLC at a flow rate of 1 mL/minute. Retention time was characterized in triplicate with a gradient of 20%–80% CH3CN in water containing 0.1% TFA over 5–35 min.

[2] = tested on: human red blood cells (hRBCs); assay: Hemolysis of human red blood cells; assay type: cell-based; conditions: red cells of human
Procedure: Table S1. Hemolysis of β-peptide 1-16, concentration of β-peptid e needed for 50% lysis of human red blood cells (hRBCs)
Peptide # Peptide Concentration at 50% Hemolysis a (HC50, µg/mL) […]
a Hemolysis assays were perfor med as previously indicated in Lee, M.R. et al., ACS Chem. Biol. (2014). Briefly, equal volumes of 2-fold dilutions of β-peptides in tris-buffered saline (TBS) were incubated with hRBCs for an hour at 37 °C. Supernatants were transferred to a new plate and absorbance was measured at 405 nm.
% hemolysis was calculated relative to positive lysis control and the concentration of peptide needed for 50% hemolysis was recorded as HC50 for that peptide. Values reported are average measurements from three independent experiments of duplicates each and the error denoted is the standard deviation. Concentration dependent hemolysis graphs can be found in Lee, M.R. et al., ACS Chem. Biol. (2014).

[3] = tested on: C. albicans SC5314 biofilm formation; assay: Biofilm formation in the presence of β-peptides, XTT; assay type: cell-based, Candida albicans; conditions: 10^6 cells/mL incubated with 2-fold dilutions of β-peptide, 37 °C, 48 h, washed, 10% or less metabolic activity vs untreated control
Procedure: C. albicans, C. glabrata, C. tropicalis, and C. parapsilosis biofilm formation in the presence of β-peptide was evaluated using a procedure used previously. Briefly, 100 μL of overnight cultures of C. albicans SC5314, C. glabrata, C. parapsilosis, and C. tropicalis adjusted to 2 × 10^6 cells/mL was added to 100 μL of two-fold serially diluted β-peptide in a 96-well plates. Peptide-free controls and cell and peptide-free controls were included for each peptide assayed and the plates were incubated at 37 °C for 48 h. After 48 h, biofilms were washed with PBS to remove non-adherent cells and the metabolic activity of biofilms grown in the presence of β-peptide was determined using XTT.
For evaluation of metabolic activities of planktonic cells and biofilms in susceptibility testing in 96-well plates, 100 μL of XTT solution was added to every well and plates were incubated at 37 °C in the dark for 1.5 h for C. albicans and 2.5 h for C. glabrata, C. parapsilosis and C. tropicalis. At the end of the incubation, 75 μL of supernatant from wells were transferred to a new plate and absorbance at 490 nm was measured. The percent metabolic activity was calculated as: Metabolic Activity (%)= (A490− A490background)/A490cell control− A490background ×100 where A490 , A490cell control , and A490background are the average absorbance values of wells containing a specific concentration of β-peptide, cell control wells without β-peptide, and media only wells, respectively. Experiments were performed in triplicate and repeated on at least two different days.

CC[C@@H](CC(=O)N[C@@H](CCCNC(=N)N)CC(=O)N[C@H]1CCCC[C@@H]1C(=O)N[C@@H](CC)CC(=O)N[C@@H](CCCNC(=N)N)CC(=O)N[C@H]1CCCC[C@@H]1C(=O)N[C@@H](CC)CC(=O)N[C@@H](CCCNC(=N)N)CC(N)=O)NC(=O)[C@H]1CCCC[C@@H]1NC(=O)C[C@@H](N)Cc1ccc(O)cc1 [Peptide 11]
Hydrophobicity (HPLC Retention Time, min) [1]: 24.2 ± 0.1 min | Peptide Concentration at 50% Hemolysis (HC50) [2]: 79 ± 8 µg/mL

NCCCC[C@@H](CC(N)=O)NC(=O)C[C@H](Cc1ccccc1)NC(=O)[C@H]1CCCC[C@@H]1NC(=O)C[C@H](CCCCN)NC(=O)C[C@H](Cc1ccccc1)NC(=O)[C@H]1CCCC[C@@H]1NC(=O)C[C@H](CCCCN)NC(=O)C[C@H](Cc1ccccc1)NC(=O)[C@H]1CCCC[C@@H]1N [Peptide 8]
MIC, Biofilm Formation (C. albicans) [3]: 8 µg/mL | Hydrophobicity (HPLC Retention Time, min) [1]: 26.2 ± 0.2 min

CC[C@@H](CC(=O)N[C@@H](CCCCN)CC(N)=O)NC(=O)[C@H]1CCCC[C@@H]1NC(=O)C[C@H](CCCCN)NC(=O)C[C@H](CC)NC(=O)[C@H]1CCCC[C@@H]1NC(=O)C[C@H](CCCCN)NC(=O)C[C@H](CC)NC(=O)[C@H]1CCCC[C@@H]1N [Peptide 2]
MIC, Biofilm Formation (C. albicans) [3]: 64 µg/mL | Hydrophobicity (HPLC Retention Time, min) [1]: 22.5 ± 0.2 min

N=C(N)NCCC[C@@H](CC(N)=O)NC(=O)[C@H]1CCCC[C@@H]1NC(=O)[C@H]1CCCC[C@@H]1NC(=O)C[C@H](CCCNC(=N)N)NC(=O)[C@H]1CCCC[C@@H]1NC(=O)[C@H]1CCCC[C@@H]1NC(=O)C[C@H](CCCNC(=N)N)NC(=O)[C@H]1CCCC[C@@H]1NC(=O)[C@H]1CCCC[C@@H]1N [Peptide 7]
MIC, Biofilm Formation (C. albicans) [3]: 16 µg/mL | Hydrophobicity (HPLC Retention Time, min) [1]: 23.8 ± 0.1 min

C[C@@H](CC(=O)N[C@@H](CCCCN)CC(=O)N[C@H]1CCCC[C@@H]1C(=O)N[C@@H](C)CC(=O)N[C@@H](CCCCN)CC(=O)N[C@H]1CCCC[C@@H]1C(=O)N[C@@H](C)CC(=O)N[C@@H](CCCCN)CC(N)=O)NC(=O)[C@H]1CCCC[C@@H]1NC(=O)C[C@@H](N)Cc1ccc(O)cc1 [Peptide 9]
Hydrophobicity (HPLC Retention Time, min) [1]: 20.4 ± 0.2 min | Peptide Concentration at 50% Hemolysis (HC50) [2]: > 400 µg/mL

CC[C@@H](CC(=O)N[C@@H](CCCNC(=N)N)CC(N)=O)NC(=O)[C@H]1CCCC[C@@H]1NC(=O)C[C@H](CCCNC(=N)N)NC(=O)C[C@H](CC)NC(=O)[C@H]1CCCC[C@@H]1NC(=O)C[C@H](CCCNC(=N)N)NC(=O)C[C@H](CC)NC(=O)[C@H]1CCCC[C@@H]1N [Peptide 3]
MIC, Biofilm Formation (C. albicans) [3]: 32 µg/mL | Hydrophobicity (HPLC Retention Time, min) [1]: 23.2 ± 0.1 min

CC(C)[C@@H](CC(=O)N[C@@H](CCCCN)CC(=O)N[C@H]1CCCC[C@@H]1C(=O)N[C@H](CC(=O)N[C@@H](CCCCN)CC(=O)N[C@H]1CCCC[C@@H]1C(=O)N[C@H](CC(=O)N[C@@H](CCCCN)CC(N)=O)C(C)C)C(C)C)NC(=O)[C@H]1CCCC[C@@H]1NC(=O)C[C@@H](N)Cc1ccc(O)cc1 [Peptide 12]
Hydrophobicity (HPLC Retention Time, min) [1]: 25.7 ± 0.1 min | Peptide Concentration at 50% Hemolysis (HC50) [2]: 12 ± 6 µg/mL

CC(C)[C@@H](CC(=O)N[C@@H](CCCNC(=N)N)CC(N)=O)NC(=O)[C@H]1CCCC[C@@H]1NC(=O)C[C@H](CCCNC(=N)N)NC(=O)C[C@@H](NC(=O)[C@H]1CCCC[C@@H]1NC(=O)C[C@H](CCCNC(=N)N)NC(=O)C[C@@H](NC(=O)[C@H]1CCCC[C@@H]1N)C(C)C)C(C)C [Peptide 5]
MIC, Biofilm Formation (C. albicans) [3]: 8 µg/mL | Hydrophobicity (HPLC Retention Time, min) [1]: 25.4 ± 0.1 min

CC(C)[C@@H](CC(=O)N[C@@H](CCCNC(=N)N)CC(=O)N[C@H]1CCCC[C@@H]1C(=O)N[C@H](CC(=O)N[C@@H](CCCNC(=N)N)CC(=O)N[C@H]1CCCC[C@@H]1C(=O)N[C@H](CC(=O)N[C@@H](CCCNC(=N)N)CC(N)=O)C(C)C)C(C)C)NC(=O)[C@H]1CCCC[C@@H]1NC(=O)C[C@@H](N)Cc1ccc(O)cc1 [Peptide 13]
Hydrophobicity (HPLC Retention Time, min) [1]: 26.5 ± 0.2 min | Peptide Concentration at 50% Hemolysis (HC50) [2]: 11 ± 2 µg/mL

C[C@@H](CC(=O)N[C@@H](CCCCN)CC(N)=O)NC(=O)[C@H]1CCCC[C@@H]1NC(=O)C[C@H](CCCCN)NC(=O)C[C@H](C)NC(=O)[C@H]1CCCC[C@@H]1NC(=O)C[C@H](CCCCN)NC(=O)C[C@H](C)NC(=O)[C@H]1CCCC[C@@H]1N [Peptide 1]
Hydrophobicity (HPLC Retention Time, min) [1]: 19.3 ± 0.1 min

NCCCC[C@@H](CC(N)=O)NC(=O)[C@H]1CCCC[C@@H]1NC(=O)[C@H]1CCCC[C@@H]1NC(=O)C[C@H](CCCCN)NC(=O)[C@H]1CCCC[C@@H]1NC(=O)[C@H]1CCCC[C@@H]1NC(=O)C[C@H](CCCCN)NC(=O)[C@H]1CCCC[C@@H]1NC(=O)[C@H]1CCCC[C@@H]1N [Peptide 6]
Hydrophobicity (HPLC Retention Time, min) [1]: 23.1 ± 0.2 min

CC[C@@H](CC(=O)N[C@@H](CCCCN)CC(=O)N[C@H]1CCCC[C@@H]1C(=O)N[C@@H](CC)CC(=O)N[C@@H](CCCCN)CC(=O)N[C@H]1CCCC[C@@H]1C(=O)N[C@@H](CC)CC(=O)N[C@@H](CCCCN)CC(N)=O)NC(=O)[C@H]1CCCC[C@@H]1NC(=O)C[C@@H](N)Cc1ccc(O)cc1 [Peptide 10]
Hydrophobicity (HPLC Retention Time, min) [1]: 23.5 ± 0.1 min | Peptide Concentration at 50% Hemolysis (HC50) [2]: 149 ± 20 µg/mL

N=C(N)NCCC[C@@H](CC(N)=O)NC(=O)[C@H]1CCCC[C@@H]1NC(=O)[C@H]1CCCC[C@@H]1NC(=O)C[C@H](CCCNC(=N)N)NC(=O)[C@H]1CCCC[C@@H]1NC(=O)[C@H]1CCCC[C@@H]1NC(=O)C[C@H](CCCNC(=N)N)NC(=O)[C@H]1CCCC[C@@H]1NC(=O)[C@H]1CCCC[C@@H]1NC(=O)C[C@@H](N)Cc1ccc(O)cc1 [Peptide 15]
Hydrophobicity (HPLC Retention Time, min) [1]: 24.6 ± 0.2 min | Peptide Concentration at 50% Hemolysis (HC50) [2]: 73 ± 40 µg/mL

NCCCC[C@@H](CC(N)=O)NC(=O)C[C@H](Cc1ccccc1)NC(=O)[C@H]1CCCC[C@@H]1NC(=O)C[C@H](CCCCN)NC(=O)C[C@H](Cc1ccccc1)NC(=O)[C@H]1CCCC[C@@H]1NC(=O)C[C@H](CCCCN)NC(=O)C[C@H](Cc1ccccc1)NC(=O)[C@H]1CCCC[C@@H]1NC(=O)C[C@@H](N)Cc1ccc(O)cc1 [Peptide 16]
Hydrophobicity (HPLC Retention Time, min) [1]: 27.4 ± 0.2 min | Peptide Concentration at 50% Hemolysis (HC50) [2]: 3 ± 1 µg/mL

NCCCC[C@@H](CC(N)=O)NC(=O)[C@H]1CCCC[C@@H]1NC(=O)[C@H]1CCCC[C@@H]1NC(=O)C[C@H](CCCCN)NC(=O)[C@H]1CCCC[C@@H]1NC(=O)[C@H]1CCCC[C@@H]1NC(=O)C[C@H](CCCCN)NC(=O)[C@H]1CCCC[C@@H]1NC(=O)[C@H]1CCCC[C@@H]1NC(=O)C[C@@H](N)Cc1ccc(O)cc1 [Peptide 14]
Hydrophobicity (HPLC Retention Time, min) [1]: 24.0 ± 0.2 min | Peptide Concentration at 50% Hemolysis (HC50) [2]: 106 ± 37 µg/mL
